Patent US7563801B2, “Pharmaceutical formulations: salts of 8-[{1-(3,5-Bis-(trifluoromethyl)phenyl)-ethoxy}-methyl]-8-phenyl-1,7-diaza-spiro[4.5]decan-2-one and treatment methods using the same” (Schering Corporation, priority 2006, dated 2009)

Assays:
[1] = Single dose rising study of the encapsulated formulation in healthy human volunteers, pharmacokinetics; format: in vivo; conditions: for AUC / Cmax / Tmax / half-life: plasma, oral capsule; for AUC: 0 to 72 hours post administration, read-out: AUC (area under the plasma concentration time curve); for Cmax: read-out: Cmax (mean maximum plasma concentration); for Tmax: read-out: Tmax (median time of maximum plasma concentration); for half-life: read-out: Half Life T ½ (converted)
Protocol: Another aspect of the present invention is the provision of a pharmaceutical formulation comprising a hydrochloride monohydrate salt of Formula II in a capsule oral dosage form which has a Pharmacokinetic (PK) profile obtained under single dose rising rate study conditions in accordance with Table VIII (average of eight study subjects).
Blood samples were collected from each volunteer at predose (hour 0) and 0.25, 0.5, 0.75, 1, 1.5, 2, 3, 4, 6, 8, 12, 16, 24, 36, 48, and 72 hours. The serum drug levels of the volunteers receiving active drug are present graphically in FIG. 2.

[2] = Second study: 10, 25 or 50 mg per day for 10 days in healthy volunteers, pharmacokinetics on days 1 and 10; format: in vivo, human; conditions: for Cmax / AUC / Tmax / half-life: plasma, oral; for Cmax: read-out: Cmax (mean maximum plasma concentration); for AUC: footnote: 0 to 72 hours post administration, read-out: AUC (area under the plasma concentration time curve); for Tmax: read-out: Tmax (median time of maximum plasma concentration); for half-life: read-out: Half Life T ½ (converted)
Protocol: In a second study, three cohorts of 8 healthy volunteers each were administered 10, 25, or 50 mg per day for each of 10 days. Administration in every case followed a 10 hour fast. Blood samples were collected from each volunteer at predose (hour 0) and 0.25, 0.5, 0.75, 1, 1.5, 2, 3, 4, 6, 8, 12, 16, 24, 36, 48, and 72 hours on each of days 1 and 10.

[3] = human, 10 mg per day, human, 10 mg per day, Day 1
[4] = human, 10 mg per day, human, 10 mg per day, Day 10
[5] = human, 25 mg per day, human, 25 mg per day, Day 1
[6] = human, 25 mg per day, human, 25 mg per day, Day 10
[7] = human, 50 mg per day, human, 50 mg per day, Day 1
[8] = human, 50 mg per day, human, 50 mg per day, Day 10

Compound `C[C@@H](OC[C@@]1(c2ccccc2)CC[C@]2(CCC(=O)N2)CN1)c1cc(C(F)(F)F)cc(C(F)(F)F)c1` [(5S,8S)-8-[{(1R)-1-(3,5-Bis-(trifluoromethyl)phenyl]-ethoxy}-methyl]-8-phenyl-1,7-diazaspiro[4,5]decan-2-one] has an AUC ([1]; single dose 5 mg) of 0.931 µg·h/mL, a Cmax ([1]; single dose 5 mg) of 0.0273 µg/mL and a Tmax ([1]; single dose 5 mg) of 2 h. It also gave an AUC ([1]; single dose 10 mg) of 1.82 µg·h/mL, a Cmax ([1]; single dose 10 mg) of 0.0527 µg/mL and a Tmax ([1]; single dose 10 mg) of 2.5 h. The AUC ([1]; single dose 25 mg) was 17.2 µg·h/mL, the Cmax ([1]; single dose 25 mg) was 0.119 µg/mL and the half-life ([1]; single dose 25 mg) was 183 h. It also gave a Tmax ([1]; single dose 25 mg) of 2.5 h, an AUC ([1]; single dose 50 mg) of 33.6 µg·h/mL and a Cmax ([1]; single dose 50 mg) of 0.276 µg/mL. For the same compound, the half-life ([1]; single dose 50 mg) was 171 h, the Tmax ([1]; single dose 50 mg) was 3 h and the AUC ([1]; single dose 100 mg) was 74.4 µg·h/mL. The Cmax ([1]; single dose 100 mg) was 0.475 µg/mL, the half-life ([1]; single dose 100 mg) was 181 h and the Tmax ([1]; single dose 100 mg) was 2 h. It also gave an AUC ([1]; single dose 200 mg) of 148 µg·h/mL, a Cmax ([1]; single dose 200 mg) of 0.944 µg/mL and a half-life ([1]; single dose 200 mg) of 169 h. The Tmax ([1]; single dose 200 mg) was 4 h, the Absorption ([1]; single oral doses 5 to 200 mg) was “rapidly absorbed” and the Absorption ([2]; human, 10, 25 or 50 mg per day for 10 days) was “rapidly absorbed”. For the same compound, the “Accumulation relative to the single dose” value ([2]; human, daily dosing for 10 days) was “approximately 5 fold”, the Cmax ([2]; human, 10 mg per day, human, 10 mg per day, Day 1, after 10 hour fast) was 0.0486 µg/mL and the AUC [2, 3] was 0.673 µg·h/mL. It also gave a Tmax [2, 3] of 3 h, a Cmax ([2]; human, 10 mg per day, human, 10 mg per day, Day 10, after 10 hour fast) of 0.18 µg/mL and an AUC [2, 4] of 3.59 µg·h/mL. For the same compound, the Tmax [2, 4] was 3 h, the Cmax ([2]; human, 25 mg per day, human, 25 mg per day, Day 1, after 10 hour fast) was 0.139 µg/mL and the AUC [2, 5] was 1.95 µg·h/mL. It also gave a Tmax [2, 5] of 2 h, a Cmax ([2]; human, 25 mg per day, human, 25 mg per day, Day 10, after 10 hour fast) of 0.491 µg/mL and an AUC [2, 6] of 9.72 µg·h/mL. It also gave a Tmax [2, 6] of 2 h, a Cmax ([2]; human, 50 mg per day, human, 50 mg per day, Day 1, after 10 hour fast) of 0.254 µg/mL and an AUC [2, 7] of 3.4 µg·h/mL. The Tmax [2, 7] was 3 h, the Cmax ([2]; human, 50 mg per day, human, 50 mg per day, Day 10, after 10 hour fast) was 0.895 µg/mL and the AUC [2, 8] was 17.7 µg·h/mL. It also gave a Tmax [2, 8] of 2.5 h, a half-life ([2]; human, 10 mg per day, Day 10) of 238 h and a half-life ([2]; human, 50 mg per day, Day 10) of 172 h.
